Measured values as given in patent US11547681B2, “N-acylethanolamide derivatives and uses thereof” (ELIEM THERAPEUTICS, INC., priority 2016, dated 2023).
Like-named read-outs stand apart in the source and are kept apart here.

How the values were obtained:
[1] = Simulated intestinal fluid (SIF) stability in the presence of various enzymes; assay type: in vitro ADME; conditions: 1 μM
Description: (§1) Studies were carried out in simulated intestinal fluid in the presence of various enzymes. Simulated intestinal fluid was prepared by dissolving 6.8 g of monobasic potassium phosphate in 1.0 L of water. Aliquots of this solution were taken and the pH was adjusted to 6.8. Individual enzymes were then spiked into aliquots for each experiment. A DMSO stock was first prepared for the test article. Aliquots of the DMSO solution were dosed into 700 μL of matrix, which had been pre-warmed to 37° C., at a final test article concentration of 1 μM. […] Samples were stored at 4° C. until the end of the experiment. After the final time point was sampled, the plate was mixed and then centrifuged at 3,000 rpm for 10 minutes. Calibration standards were prepared in matched matrix. […] Analytical conditions are outlined in Appendix 8-1.
as §1, with “10-1.” for “8-1.”
Studies were carried out in simulated intestinal fluid in the presence of various enzymes. Simulated intestinal fluid was prepared by dissolving 6.8 g of monobasic potassium phosphate in 1.0 L of water. Aliquots of this solution were taken and the pH was adjusted to 6.8. Individual enzymes were then spiked into aliquots for each experiment. A DMSO stock was first prepared for test article. Aliquots of the DMSO solution were dosed into 700 μL of matrix, which had been pre-warmed to 37° C., at a final test article concentration of 1 μM. […] Samples were stored at 4° C. until the end of experiment. After final time point was sampled, the plate was mixed and then centrifuged at 3,000 rpm for 10 minutes. Calibration standards were prepared in matched matrix. […] Analytical conditions are outlined in Appendix 13-1.
as §1, with “17-1.” for “8-1.”

[2] = rat, in vivo
Description: PEA was also dosed intravenously at 1 mg/kg. Blood samples were collected up to 8 hours post-dose, and PEA and PEA-prodrug plasma concentrations were determined with a qualified LC-MS/MS method. Pharmacokinetic analysis was conducted by a non-compartmental model using Phoenix WinNonlin v.6.4 software.
The IV dosing solution was prepared fresh on the day of dosing at 0.5 mg/mL in a vehicle comprised of 10% solutol HS15, 10% n-methylpyrrolidone (NMP), 10% polyethylene glycol 400 (PEG400), and 70% water. For PO dosing, torpac capsules were loaded with an appropriate amount of PEA, PEA-prodrug, or normast powder. […] The prodrug dose in group 5 was the maximum amount of powder that would fit into a single capsule.
The pharmacokinetics of PEA and the PEA-prodrug were evaluated in fasted male Sprague-Dawley rats. Rats were housed one per cage. Each rat was fitted with a jugular vein cannula (JVC) for blood collection. Rats intended for IV dosing were fitted with an additional JVC for dosing. Each study group was dosing in triplicate. Rats were fasted for a minimum of twelve hours prior to dosing. Food was returned at four hours post dosing. Animals had free access to water throughout the study.
Blood samples (˜300 μL) were collected from the rats via a JVC and placed into chilled polypropylene tubes containing sodium heparin as an anticoagulant, and 30 μL of 0.5 M citric acid. Samples were maintained chilled throughout processing. Blood samples were centrifuged at 4° C. and 3,000 g for 5 minutes. Plasma (˜150 μL) was then transferred to a chilled, labeled polypropylene tube containing 15 μL of 10% formic acid, placed on dry ice, and stored in a freezer maintained at −60° C. to −80° C.
Pharmacokinetic parameters were determined with Phoenix WinNonlin (v6.4) software using a non-compartmental model. Maximum plasma concentrations (C0) after IV dosing were estimated by extrapolation of the first two time points back to t=0. […] Area under the time concentration curve (AUC) was calculated using the linear trapezoidal rule with calculation to the last quantifiable data point, and with extrapolation to infinity if applicable. […] Mean residence time, MRT, was calculated by dividing the area under the moment curve (AUMC) by the AUC. Clearance (CL) was calculated from dose/AUC. Steady-state volume of distribution (Vss) was calculated from CL*MRT (mean residence time). Bioavailability was determined by dividing the individual PO dose normalized AUClast values by the average IV AUClast value. Any samples below the limit of quantitation were treated as zero for pharmacokinetic data analysis.
Measured concentrations of PEA in plasma samples were corrected by subtracting the concentration of PEA measured in the pre-dose samples. […] Any corrected values that were negative are reported as not determined (ND).

[3] = Summary of half life data (Table A), matrix not stated; assay type: in vitro ADME
[4] = SIF + Carboxypeptidase A, 0 min
[5] = SIF + Carboxypeptidase A, 15 min
[6] = SIF + Carboxypeptidase A, 30 min
[7] = SIF + Carboxypeptidase A, 60 min
[8] = SIF + Carboxypeptidase A, 120 min
[9] = SIF + Carboxypeptidase B, 0 min
[10] = SIF + Carboxypeptidase B, 15 min
[11] = SIF + Carboxypeptidase B, 30 min
[12] = SIF + Carboxypeptidase B, 60 min
[13] = SIF + Carboxypeptidase B, 120 min
[14] = simulated intestinal fluid with carboxypeptidase A, pH 6.8, SIF + Carboxypeptidase A, read-out: Half-life
[15] = simulated intestinal fluid with carboxypeptidase B, pH 6.8, SIF + Carboxypeptidase B, read-out: Half-life
[16] = simulated intestinal fluid with chymotrypsin, pH 6.8, SIF + Chymotrypsin, read-out: Half-life
[17] = simulated intestinal fluid with elastase, pH 6.8, SIF + Elastase, read-out: Half-life
[18] = simulated intestinal fluid with pancreatin, pH 6.8, SIF + Pancreatin, read-out: Half-life
[19] = simulated intestinal fluid with trypsin, pH 6.8, SIF + Trypsin, read-out: Half-life

Structure (SMILES) | % Remaining of Initial (n = 1) [1, 4] | % Remaining of Initial (n = 1) [1, 5] | % Remaining of Initial (n = 1) [1, 6] | % Remaining of Initial (n = 1) [1, 7] | % Remaining of Initial (n = 1) [1, 8] | % Remaining of Initial (n = 1) [1, 9] | % Remaining of Initial (n = 1) [1, 10] | % Remaining of Initial (n = 1) [1, 11] | % Remaining of Initial (n = 1) [1, 12] | % Remaining of Initial (n = 1) [1, 13] | % Remaining of Initial (n = 1) ([1]; SIF + Chymotrypsin, 0 min) | % Remaining of Initial (n = 1) ([1]; SIF + Chymotrypsin, 15 min) | % Remaining of Initial (n = 1) ([1]; SIF + Chymotrypsin, 30 min) | % Remaining of Initial (n = 1) ([1]; SIF + Chymotrypsin, 60 min) | % Remaining of Initial (n = 1) ([1]; SIF + Chymotrypsin, 120 min) | % Remaining of Initial (n = 1) ([1]; SIF + Elastase, 0 min) | % Remaining of Initial (n = 1) ([1]; SIF + Elastase, 15 min) | % Remaining of Initial (n = 1) ([1]; SIF + Elastase, 30 min) | % Remaining of Initial (n = 1) ([1]; SIF + Elastase, 60 min) | % Remaining of Initial (n = 1) ([1]; SIF + Elastase, 120 min) | further results
CC/C=C\C/C=C\C/C=C\C/C=C\C/C=C\CCCC(=O)OCCNC(=O)CCCCCCCCCCCCCCC [Compound I-5] | 100% | 84% | 63% | 39% | 15% | 100% | 94% | 62% | 43% | 14% | 100% | 75% | 59% | 37% | 23% | 100% | 103% | 70% | 48% | 35% | % Remaining of Initial (n = 1) ([1]; SIF + Pancreatin, 0 min): 100%; % Remaining of Initial (n = 1) ([1]; SIF + Pancreatin, 15 min): 13%; % Remaining of Initial (n = 1) ([1]; SIF + Pancreatin, 30 min): <1.0%; % Remaining of Initial (n = 1) ([1]; SIF + Pancreatin, 60 min): <1.0%; % Remaining of Initial (n = 1) ([1]; SIF + Pancreatin, 120 min): <1.0%; % Remaining of Initial (n = 1) ([1]; SIF + Trypsin, 0 min): 100%; % Remaining of Initial (n = 1) ([1]; SIF + Trypsin, 15 min): 81%; % Remaining of Initial (n = 1) ([1]; SIF + Trypsin, 30 min): 67%; % Remaining of Initial (n = 1) ([1]; SIF + Trypsin, 60 min): 44%; % Remaining of Initial (n = 1) ([1]; SIF + Trypsin, 120 min): 26%; half-life at 1 μM [1, 14]: 44 min; half-life at 1 μM [1, 15]: 45 min; half-life at 1 μM [1, 16]: 47 min; half-life at 1 μM [1, 17]: 65 min; half-life at 1 μM [1, 18]: 5.1 min; half-life at 1 μM [1, 19]: 56 min; PEA plasma concentration, 0 (pre-dose) ([2]; male, Sprague-Dawley): 3.66 ng/mL
CCCCCCCCCCCCCCCC(=O)NCCOC(=O)CCC(=O)OCC(O)CO (centres unmarked) [Compound I-9] | 100% | 43% | 15% | 10% | 5.5% | 100% | 44% | 14% | 6.1% | 4.7% | 100% | 45% | 24% | 11% | 7.2% | 100% | 49% | 22% | 10% | 6.3% | % Remaining of Initial (n = 1) ([1]; SIF + Pancreatin, 0 min): 100%; % Remaining of Initial (n = 1) ([1]; SIF + Pancreatin, 15 min): 35%; % Remaining of Initial (n = 1) ([1]; SIF + Pancreatin, 30 min): 34%; % Remaining of Initial (n = 1) ([1]; SIF + Pancreatin, 60 min): 20%; % Remaining of Initial (n = 1) ([1]; SIF + Pancreatin, 120 min): 13%; % Remaining of Initial (n = 1) ([1]; SIF + Trypsin, 0 min): 100%; % Remaining of Initial (n = 1) ([1]; SIF + Trypsin, 15 min): 67%; % Remaining of Initial (n = 1) ([1]; SIF + Trypsin, 30 min): 49%; % Remaining of Initial (n = 1) ([1]; SIF + Trypsin, 60 min): 22%; % Remaining of Initial (n = 1) ([1]; SIF + Trypsin, 120 min): 12%; half-life at 1 μM [1, 14]: 12 min; half-life at 1 μM [1, 15]: 12 min; half-life at 1 μM [1, 16]: 14 min; half-life at 1 μM [1, 17]: 15 min; half-life at 1 μM [1, 18]: 17 min; half-life at 1 μM [1, 19]: 29 min; PEA-prodrug in plasma samples ([2]; po): not detectable
CCCCCCCCCCCCCCCC(=O)NCCOC(=O)CCC(=O)OCC(COC(=O)CCC)OC(=O)CCC (centres unmarked) [Compound I-11] | 100% | 73% | 78% | 42% | 18% | 100% | 68% | 50% | 33% | 9.6% | 100% | 84% | 63% | 42% | 21% | 100% | 70% | 50% | 33% | 17% | % Remaining of Initial (n = 1) ([1]; SIF + Pancreatin, 0 min): 100%; % Remaining of Initial (n = 1) ([1]; SIF + Pancreatin, 15 min): <1.0%; % Remaining of Initial (n = 1) ([1]; SIF + Pancreatin, 30 min): <1.0%; % Remaining of Initial (n = 1) ([1]; SIF + Pancreatin, 60 min): <1.0%; % Remaining of Initial (n = 1) ([1]; SIF + Pancreatin, 120 min): <1.0%; % Remaining of Initial (n = 1) ([1]; SIF + Trypsin, 0 min): 100%; % Remaining of Initial (n = 1) ([1]; SIF + Trypsin, 15 min): 77%; % Remaining of Initial (n = 1) ([1]; SIF + Trypsin, 30 min): 62%; % Remaining of Initial (n = 1) ([1]; SIF + Trypsin, 60 min): 45%; % Remaining of Initial (n = 1) ([1]; SIF + Trypsin, 120 min): 23%; half-life at 1 μM [1, 14]: 53 min; half-life at 1 μM [1, 15]: 34 min; half-life at 1 μM [1, 16]: 50 min; half-life at 1 μM [1, 17]: 37 min; half-life at 1 μM [1, 18]: < 1 min; half-life at 1 μM [1, 19]: 53 min; half-life [3]: < 1 min; Bioavailability ([2]; male, Sprague-Dawley, po): 4.5%
CCCCC/C=C\C/C=C\CCCCCCCC(=O)OCC(COC(=O)CCC(=O)OCCNC(=O)CCCCCCCCCCCCCCC)OC(=O)CCCCCCC/C=C\C/C=C\CCCCC (centres unmarked) [Compound I-13] | 100% | 77% | 53% | 27% | 37% | 100% | 65% | 31% | 14% | 8.7% | 100% | 82% | 67% | 45% | 15% | 100% | 41% | 16% | 5.6% | 5.0% | % Remaining of Initial (n = 1) ([1]; SIF + Pancreatin, 0 min): 100%; % Remaining of Initial (n = 1) ([1]; SIF + Pancreatin, 15 min): 1.3%; % Remaining of Initial (n = 1) ([1]; SIF + Pancreatin, 30 min): 3.7%; % Remaining of Initial (n = 1) ([1]; SIF + Pancreatin, 60 min): 3.4%; % Remaining of Initial (n = 1) ([1]; SIF + Pancreatin, 120 min): <1.0%; % Remaining of Initial (n = 1) ([1]; SIF + Trypsin, 0 min): 100%; % Remaining of Initial (n = 1) ([1]; SIF + Trypsin, 15 min): 78%; % Remaining of Initial (n = 1) ([1]; SIF + Trypsin, 30 min): 70%; % Remaining of Initial (n = 1) ([1]; SIF + Trypsin, 60 min): 55%; % Remaining of Initial (n = 1) ([1]; SIF + Trypsin, 120 min): <1.0%; half-life at 1 μM [1, 14]: 47 min; half-life at 1 μM [1, 15]: 20 min; half-life at 1 μM [1, 16]: 49 min; half-life at 1 μM [1, 17]: 12 min; half-life at 1 μM ([1]; simulated intestinal fluid with pancreatin, pH 6.8, SIF + Pancreatin, outside the sampled time range, read-out: Half-life, calculated (in parentheses)): 2.5 min; half-life at 1 μM [1, 18]: < 15 min; half-life at 1 μM [1, 19]: 47 min
